Tested on: LG0703-F948-PDC spheroids with HUVEC/MSC, viability
Test: Anticancer human tumor LG0703-F948-PDC patient-derived lung adenocarcinoma cell line growth inhibition [IpAb]
Settings: for IC50: curve of first compound; for viability, T/C: stronger effect = lower value; active means viability on the fitted dose curve at most 10% of control; inactive means the rest
In short: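 Spheroids of 60% malignant cells, 25% HUVEC and 15% MSC were exposed to targeted agents combined with ipatasertib or abemaciclib. Doses started at or near clinical Cmax (10 microM when unknown) and fell in half-log steps.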

[1] = second compound 0.1 µM, first compound 0.0316 µM
[2] = second compound 0.1 µM, first compound 0.1 µM
[3] = second compound 0.316 µM, first compound 0.0316 µM
[4] = second compound 0.316 µM, first compound 0.1 µM
[5] = second compound 1 µM, first compound 0.0316 µM
[6] = second compound 1 µM, first compound 0.1 µM
[7] = second compound 3.16 µM, first compound 0.0316 µM
[8] = second compound 3.16 µM, first compound 0.1 µM
[9] = second compound 10 µM, first compound 0.0316 µM
[10] = second compound 10 µM, first compound 0.1 µM
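Further: spheroids exposed to compounds for seven days before readout.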
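Wherever viability, T/C is given: T/C percent relative to DMSO vehicle wells set as 100% viability.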

C=CC(=O)N1CCN(c2nc(=O)n(-c3c(C)ccnc3C(C)C)c3nc(-c4c(O)cccc4F)c(F)cc23)C(C)C1 (stereo not given) + CC(C)NCC(C(=O)N1CCN(c2ncnc3c2C(C)CC3O)CC1)c1ccc(Cl)cc1
> 10000 nM: IC50 (second compound 0.1 µM) | IC50 (second compound 0.316 µM)
3340 nM: IC50 (second compound 1 µM)
< 31.6 nM: IC50 (second compound 3.16 µM) | IC50 (second compound 10 µM)
inactive: viability, T/C [1] 87.5% | viability, T/C [2] 86.1% | viability, T/C (second compound 0.1 µM, first compound 0.316 µM) 92.7% | viability, T/C (second compound 0.1 µM, first compound 1 µM) 91.1% | viability, T/C (second compound 0.1 µM, first compound 3.16 µM) 90.6% | viability, T/C (second compound 0.1 µM, first compound 10 µM) 54.3% | viability, T/C [3] 64.5% | viability, T/C [4] 67.1% | viability, T/C (second compound 0.316 µM, first compound 0.316 µM) 62.6% | viability, T/C (second compound 0.316 µM, first compound 1 µM) 71.6% | viability, T/C (second compound 0.316 µM, first compound 3.16 µM) 73.5% | viability, T/C (second compound 0.316 µM, first compound 10 µM) 46.4% | viability, T/C [5] 54.9% | viability, T/C [6] 56.5% | viability, T/C (second compound 1 µM, first compound 0.316 µM) 58% | viability, T/C (second compound 1 µM, first compound 1 µM) 54.4% | viability, T/C (second compound 1 µM, first compound 3.16 µM) 50.8% | viability, T/C (second compound 1 µM, first compound 10 µM) 34.5% | viability, T/C [7] 44.5% | viability, T/C [8] 52.9% | viability, T/C (second compound 3.16 µM, first compound 0.316 µM) 48.5% | viability, T/C (second compound 3.16 µM, first compound 1 µM) 47% | viability, T/C (second compound 3.16 µM, first compound 3.16 µM) 45.6% | viability, T/C (second compound 3.16 µM, first compound 10 µM) 30.7% | viability, T/C [9] 40% | viability, T/C [10] 39% | viability, T/C (second compound 10 µM, first compound 0.316 µM) 40.9% | viability, T/C (second compound 10 µM, first compound 1 µM) 42.7% | viability, T/C (second compound 10 µM, first compound 3.16 µM) 38.1% | viability, T/C (second compound 10 µM, first compound 10 µM) 22.5%

CC(C)(C)c1cnc(CSc2cnc(NC(=O)C3CCNCC3)s2)o1 + CC(C)NCC(C(=O)N1CCN(c2ncnc3c2C(C)CC3O)CC1)c1ccc(Cl)cc1
inactive: viability, T/C (second compound 0.1 µM, first compound 0.00949 µM) 78.5% | viability, T/C (second compound 0.1 µM, first compound 0.03 µM) 74% | viability, T/C (second compound 0.1 µM, first compound 0.0949 µM) 43.3% | viability, T/C (second compound 0.316 µM, first compound 0.00949 µM) 61.5% | viability, T/C (second compound 0.316 µM, first compound 0.03 µM) 51.2% | viability, T/C (second compound 0.316 µM, first compound 0.0949 µM) 30.8% | viability, T/C (second compound 1 µM, first compound 0.00949 µM) 52% | viability, T/C (second compound 1 µM, first compound 0.03 µM) 47.5% | viability, T/C (second compound 1 µM, first compound 0.0949 µM) 24.2% | viability, T/C (second compound 3.16 µM, first compound 0.00949 µM) 44.7% | viability, T/C (second compound 3.16 µM, first compound 0.03 µM) 37.4% | viability, T/C (second compound 3.16 µM, first compound 0.0949 µM) 15.4% | viability, T/C (second compound 10 µM, first compound 0.00949 µM) 35.1% | viability, T/C (second compound 10 µM, first compound 0.03 µM) 31.5% | viability, T/C (second compound 10 µM, first compound 0.0949 µM) 28.2%
74.3 nM: IC50 (second compound 0.1 µM)
< 9.49 nM: IC50 (second compound 3.16 µM) | IC50 (second compound 10 µM)
active: viability, T/C (second compound 0.1 µM, first compound 0.3 µM) 0.48% | viability, T/C (second compound 0.1 µM, first compound 0.949 µM) 0.41% | viability, T/C (second compound 0.1 µM, first compound 3 µM) 0.23% | viability, T/C (second compound 0.316 µM, first compound 0.3 µM) 0.34% | viability, T/C (second compound 0.316 µM, first compound 0.949 µM) 0.3% | viability, T/C (second compound 0.316 µM, first compound 3 µM) 0.29% | viability, T/C (second compound 1 µM, first compound 0.3 µM) 0.43% | viability, T/C (second compound 1 µM, first compound 0.949 µM) 0.34% | viability, T/C (second compound 1 µM, first compound 3 µM) 0.31% | viability, T/C (second compound 3.16 µM, first compound 0.3 µM) 0.55% | viability, T/C (second compound 3.16 µM, first compound 0.949 µM) 1.3% | viability, T/C (second compound 3.16 µM, first compound 3 µM) 0.69% | viability, T/C (second compound 10 µM, first compound 0.3 µM) 1.21% | viability, T/C (second compound 10 µM, first compound 0.949 µM) 0.81% | viability, T/C (second compound 10 µM, first compound 3 µM) 0.34%
36.9 nM: IC50 (second compound 0.316 µM)
15.5 nM: IC50 (second compound 1 µM)

Cn1ncnc1[C@H]1c2n[nH]c(=O)c3cc(F)cc(c23)N[C@@H]1c1ccc(F)cc1 + CC(C)NCC(C(=O)N1CCN(c2ncnc3c2C(C)CC3O)CC1)c1ccc(Cl)cc1
> 100 nM: IC50 (second compound 0.1 µM) | IC50 (second compound 0.316 µM) | IC50 (second compound 1 µM)
inactive: viability, T/C (second compound 0.1 µM, first compound 0.000316 µM) 91.9% | viability, T/C (second compound 0.1 µM, first compound 0.001 µM) 79.1% | viability, T/C (second compound 0.1 µM, first compound 0.00316 µM) 79.2% | viability, T/C (second compound 0.1 µM, first compound 0.01 µM) 91.9% | viability, T/C [1] 68.6% | viability, T/C [2] 73.4% | viability, T/C (second compound 0.316 µM, first compound 0.000316 µM) 73.5% | viability, T/C (second compound 0.316 µM, first compound 0.001 µM) 67.9% | viability, T/C (second compound 0.316 µM, first compound 0.00316 µM) 59.8% | viability, T/C (second compound 0.316 µM, first compound 0.01 µM) 65.7% | viability, T/C [3] 63.6% | viability, T/C [4] 58.3% | viability, T/C (second compound 1 µM, first compound 0.000316 µM) 60.1% | viability, T/C (second compound 1 µM, first compound 0.001 µM) 51.4% | viability, T/C (second compound 1 µM, first compound 0.00316 µM) 51% | viability, T/C (second compound 1 µM, first compound 0.01 µM) 53.5% | viability, T/C [5] 60.3% | viability, T/C [6] 51.9% | viability, T/C (second compound 3.16 µM, first compound 0.000316 µM) 47% | viability, T/C (second compound 3.16 µM, first compound 0.001 µM) 40.3% | viability, T/C (second compound 3.16 µM, first compound 0.00316 µM) 45.9% | viability, T/C (second compound 3.16 µM, first compound 0.01 µM) 42.9% | viability, T/C [7] 49.5% | viability, T/C [8] 46.1% | viability, T/C (second compound 10 µM, first compound 0.000316 µM) 42.8% | viability, T/C (second compound 10 µM, first compound 0.001 µM) 44.4% | viability, T/C (second compound 10 µM, first compound 0.00316 µM) 37.7% | viability, T/C (second compound 10 µM, first compound 0.01 µM) 45.9% | viability, T/C [9] 38% | viability, T/C [10] 37.2%
< 0.316 nM: IC50 (second compound 3.16 µM) | IC50 (second compound 10 µM)
